Experimental data: US20090036416A1, “Novel CXCR4 Antagonist and Use Thereof” (Kyoto University, priority 2005, published 2009)

How the values were obtained:
[1] = target: T1, CXCR4 (Homo sapiens, UniProt P61073); test: CXCR4 antagonistic activity: inhibition of Ca2+ movement induced by SDF-1a in CXCR4 transfected CHO cells (Fura-2); assay type: cell-based; conditions: for CXCR4 antagonistic activity (in words): comment in the text on Tables 1 to 3
Description: Various aromatic compounds each having a dipicolylamine-zinc complex were prepared, and their CXCR4 antagonistic effects were examined using the following method.
A CXCR4 transfected Chinese hamster ovary(CHO) cells (3×10^4 cell/100 μL/well) were plated in each well of a flat-bottomed micro-titer tray. The samples were incubated in a CO2 incubator at 37° C., and the cells were loaded in Ham F-12 buffer(80 μL/well) for an hour at 37° C., together with 5 μM Fura-2AM (Dojindo, Kumatomo, Japan), 2.5 mM Probenecid (Sigma) and 20 mM HEPES(pH7.4).
Thereafter, the cells were washed twice with Hank's balanced salt solution (100 μL×2), and placed in a spectrofluorimeter (96 well Fluorescence Drug Screening System, Hamamatsu Photonics K.K. Japan). 30 seconds after the measurement started, the cells were incubated in Hank's balanced salt solution with plural test compounds of different concentrations. After 3 minutes, recombinant SDF-1a (PreproTech, 30 nM/[…]/well) was added.
Changes of the CXCR4 transfect CHO cell system loaded with Fura2-A[Ca^2+], were recorded in real time with a modification method of Fura-2. The CXCR4 antagonistic effect was measured based on the inhibition of Ca^2+ movement induced by the stimulation of SDF-1a via CXCR4 (IC50).

[2] = target: T1, CXCR4; test: CXCR4 binding activity: inhibition of 125I-SDF-1a bonding to CXCR4 transfected CHO cells
[3] = system: HIV-1IIIB; conditions: read-out: EC50 (anti-HIV-1 activity); HIV-1IIIB infected MT-4 cells, virus number/cells number=0.01, five days, MTT viable cell count

T1 sequence (P61073 whole entry): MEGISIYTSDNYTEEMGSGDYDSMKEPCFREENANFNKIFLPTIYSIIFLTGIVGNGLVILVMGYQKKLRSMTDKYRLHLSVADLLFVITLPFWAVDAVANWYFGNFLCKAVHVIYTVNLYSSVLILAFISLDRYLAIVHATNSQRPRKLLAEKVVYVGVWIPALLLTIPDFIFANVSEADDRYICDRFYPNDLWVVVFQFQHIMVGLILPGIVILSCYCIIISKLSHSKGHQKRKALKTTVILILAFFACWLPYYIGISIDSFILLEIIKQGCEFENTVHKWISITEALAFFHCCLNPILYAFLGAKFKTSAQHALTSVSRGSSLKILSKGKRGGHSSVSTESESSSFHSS

Compound	IC50 [1] [nM]	further results
9,10-bis[(2,2′-dipicolylamino) methyl]anthracene/Zn complex [Example Compound 9]	–	CXCR4 antagonistic activity (in words) [1]: high activity; IC50 ([1]; inhibition of Ca2+ movement induced by SDF-1a (30 nM) via CXCR4, CXCR4 transfected CHO cells): 240 nM
c1ccc(CN(Cc2cccc(-c3cccc(CN(Cc4ccccn4)Cc4ccccn4)c3)c2)Cc2ccccn2)nc1 [Example Compound 3]	350	–
c1ccc(CN(Cc2ccnc(-c3cc(CN(Cc4ccccn4)Cc4ccccn4)ccn3)c2)Cc2ccccn2)nc1 [Example Compound 5]	460	–
C[C@H](NC(=O)[C@H](CCCNC(=N)N)NC(=O)c1ccc(CNCc2ccccn2)cc1)c1cccc2ccccc12 [Reference Example Compound III, reference compound]	240	IC50 [2]: 34 nM
bis(2,2′-dipicolylamino)-p-xylene/zinc complex [Example Compound 1]	–	CXCR4 bonding activity (in words) ([2]; comment in the text on Table 4): comparative to that of Reference Example Compound III (KRH-1636); EC50 [3]: 7100 nM; CXCR4 antagonistic activity (in words) [1]: strong CXCR4 antagonistic activity

The next lines start with results.

IC50 [1] [nM]	Compound	further results
> 10000	c1ccc(CN(Cc2ccc(CN(Cc3ccccn3)Cc3ccccn3)cc2)Cc2ccccn2)nc1 [Comparative Example Compound A, reference compound]	–
> 10000	c1ccc(CN(Cc2ccc(-c3ccc(CN(Cc4ccccn4)Cc4ccccn4)cc3)cc2)Cc2ccccn2)nc1 [Comparative Example Compound B, reference compound]	–
770	c1ccc(CN(Cc2ccccn2)Cc2c3ccccc3cc3ccccc23)nc1 [Example Compound 8]	–
